# Assay results: PMC3142157, “Sensitive and Specific Fluorescent Probes for Functional Analysis of the Three Major Types of Mammalian ABC Transporters” (PLoS ONE, 2011)
# Experiments:
# A549 cells = experiment: Dye uptake flow cytometry MDR assay (MAF / D-values), A549 cells; assay type: cell-based, human; settings: dye uptake protocol; for MAF value, Fumitremorgin C: probe with vs without fumitremorgin C; for MAF value, Probenecid: probe with vs without probenecid; for MAF value, Verapamil: probe with vs without verapamil
# Procedure: (§1) Detailed protocol for the MDR assay is available in the Instruction Manual for eFluxx-ID® Green or Gold Multi-Drug Resistance Assay Kit (ENZO Life Sciences, Inc., Farmingdale, NY). Briefly, on the day of the assay, cells were collected, washed with PBS and incubated with or without MDR inhibitors in the presence of the eFluxx-ID® Green or Gold probes for 30 min at 37°C and analyzed immediately by flow cytometry. eFluxx-ID® Green or Gold probes are novel xanthene-based small molecule dyes developed for the detection of MDR activity in living cells. In order to exclude dead cells in the analyses, propidium iodide (PI) or 7-actinaminomycin D (7-AAD) solution was added to the cells during the last 5 min of incubation in some experiments.
# (§2) To develop a minimal step assay procedure for the dye uptake protocol, three modifications of the protocol were investigated. One set of the cells was treated according to a general “no-wash” protocol (see Instruction Manual for the kit). In the second set of tubes, the reaction was stopped by rapid centrifugation (1 min) at relatively low speed (200×g). After washing with ice-cold PBS and discarding the supernatant, cells were re-suspended in 0.5 ml of ice-cold medium and kept on ice until flow cytometry analysis was performed. The third set of cells was simply spun down (1 min, 200×g) to remove the excess probe, resuspended in ice-cold medium and kept on ice until flow cytometry analysis was performed. eFluxx-ID® Green dye (ex/em 490/514 nm) fluorescence intensity was measured in the FL1/FITC (530/30 filter) channel, and eFluxx-ID® Gold dye (ex/em 530/555 nm) fluorescence intensity was monitored in the FL2/PE (585/42 filter) channel.
# (§3) Experiments were performed using a FACS Calibur benchtop flow cytometer (BD Biosciences, San Jose, CA) equipped with a blue (488 nm) laser, and the signals were registered in the FITC (530/30 filter), PE (585/42 filter) and PerCP (670 LP filter) channels. eFluxx-ID® Green dye fluorescence was measured in the FL1/FITC channel, and eFluxx-ID® Gold dye fluorescence, in the FL2/PE channel. Data analysis was performed using FlowJo 8.8.2 software (Tree Star, Inc., Ashland, OR).
# (§4) All of the experiments were performed at least three times. Results were expressed as mean ± S.E. Statistical comparisons were made using an unpaired two-tailed Student's t-test. A P value of <0.05 was considered significant. Flow cytometry data were analyzed by comparison of median fluorescence, by using Kolmogorov-Smirnov statistics (D-value) or by calculating MDR Activity Factor (MAF) values using the following formula: MAF = 100*((MFIinh−MFI0)/MFIinh), wherein MFIinh and MFI0 are the mean fluorescence intensity values measured in the presence and absence of inhibitor [7].
# HL-60/MX1 cells = experiment: Dye uptake flow cytometry MDR assay (MAF), HL-60/MX1 cells; assay type: cell-based, human
# Procedure: (§5) Detailed protocol for the MDR assay is available in the Instruction Manual for eFluxx-ID® Green or Gold Multi-Drug Resistance Assay Kit (ENZO Life Sciences, Inc., Farmingdale, NY). […] In order to exclude dead cells in the analyses, propidium iodide (PI) or 7-actinaminomycin D (7-AAD) solution was added to the cells during the last 5 min of incubation in some experiments. Experiments were performed using a FACS Calibur benchtop flow cytometer (BD Biosciences, San Jose, CA) equipped with a blue (488 nm) laser, and the signals were registered in the FITC (530/30 filter), PE (585/42 filter) and PerCP (670 LP filter) channels. eFluxx-ID® Green dye fluorescence was measured in the FL1/FITC channel, and eFluxx-ID® Gold dye fluorescence, in the FL2/PE channel. Data analysis was performed using FlowJo 8.8.2 software (Tree Star, Inc., Ashland, OR). All of the experiments were performed at least three times. Results were expressed as mean ± S.E. Statistical comparisons were made using an unpaired two-tailed Student's t-test. […] Additionally, HCT-8 cell line reported to overexpress both MDR1 and MRP transporters, [21] was tested. HCT-8, HCT-15, HepG2, HL-60 and HL-60/MX1 cells were grown on tissue culture dishes and on the day of assay were incubated with eFluxx-ID® Green and Gold probes with and without inhibitors according to the described dye uptake protocol (Materials and Methods) and analyzed by flow cytometry.
# HeLa cells = experiment: Dye uptake flow cytometry MDR assay (MAF), HeLa cells; assay type: cell-based, human; settings: dye uptake protocol; for MAF value, Fumitremorgin C: probe with vs without fumitremorgin C; for MAF value, Probenecid: probe with vs without probenecid; for MAF value, Verapamil: probe with vs without verapamil
# Procedure: as §1, §2, §3, §4
# CHO K1 cells = experiment: Dye uptake flow cytometry MDR assay (MAF / D-values), CHO K1 cells; assay type: cell-based, hamster; settings: for D-values Post Inhibitor Treatment (compared to uninhibited cells), CsA / D-values Post Inhibitor Treatment (compared to uninhibited cells), FTC / D-values Post Inhibitor Treatment (compared to uninhibited cells), MK-571 / D-values Post Inhibitor Treatment (compared to uninhibited cells), Verapamil: CHO K1; for MAF value, Fumitremorgin C / MAF value, Probenecid / MAF value, Verapamil: CHO K1 cells, dye uptake protocol; for MAF value, Fumitremorgin C: probe with vs without fumitremorgin C; for MAF value, Probenecid: probe with vs without probenecid; for MAF value, Verapamil: probe with vs without verapamil
# Procedure: as §1, §2, §3, §4
# HL-60 cells = experiment: Dye uptake flow cytometry MDR assay (MAF), HL-60 cells; assay type: cell-based, human
# Procedure: as §5
# HCT-8 cells = experiment: Dye uptake flow cytometry MDR assay (MAF), HCT-8 cells; assay type: cell-based, human
# Procedure: as §5
# HCT-15 cells = experiment: Dye uptake flow cytometry MDR assay (MAF), HCT-15 cells; assay type: cell-based, human
# Procedure: as §5
# [1] = probe with vs without CsA, mean ± SEM
# [2] = probe with vs without MK571, mean ± SEM
# [3] = probe with vs without Nov, mean ± SEM
# [4] = probe with vs without Ver, mean ± SEM
# [5] = dual probe treatment eFluxx-ID Gold + Pheophorbide A
# [6] = dual probe treatment eFluxx-ID Green + Pheophorbide A
# [7] = triple probe treatment CMFDA + eFluxx-ID Gold + Pheophorbide A
# [8] = triple probe treatment DiOC2(3) + eFluxx-ID Gold + Pheophorbide A
# [9] = dual probe treatment eFluxx-ID Gold + DiOC2(3)
smiles,measurement,setting,value
"C=Cc1c(C)c2cc3nc(c4c5[nH]c(cc6nc(cc1[nH]2)C(C)=C6CC)c(C)c5C(=O)[C@@H]4C(=O)OC)[C@@H](CCC(=O)O)[C@@H]3C [Pheophorbide A, pheophorbide A]","MAF value, Fumitremorgin C",A549 cells,36.0
same,"MAF value, Probenecid",A549 cells,14.2
same,"MAF value, Verapamil",A549 cells,4.0
same,"MAF value, CsA",HL-60/MX1 cells; [1],22.5±3.0
same,"MAF value, MK571",HL-60/MX1 cells; [2],10.2±3.7
same,"MAF value, Nov",HL-60/MX1 cells; [3],23.4±0.8
same,"MAF value, Ver",HL-60/MX1 cells; [4],7.6±3.8
same,"MAF value, Fumitremorgin C",HeLa cells,5.8
same,"MAF value, Probenecid",HeLa cells,0.5
same,"MAF value, Verapamil",HeLa cells,0
same,"D-values Post Inhibitor Treatment (compared to uninhibited cells), CsA",CHO K1 cells; [5],0.25
same,"D-values Post Inhibitor Treatment (compared to uninhibited cells), FTC",CHO K1 cells; [5],0.34
same,"D-values Post Inhibitor Treatment (compared to uninhibited cells), MK-571",CHO K1 cells; [5],0.14
same,"D-values Post Inhibitor Treatment (compared to uninhibited cells), Verapamil",CHO K1 cells; [5],0.11
same,"D-values Post Inhibitor Treatment (compared to uninhibited cells), CsA",CHO K1 cells; [6],0.25
same,"D-values Post Inhibitor Treatment (compared to uninhibited cells), FTC",CHO K1 cells; [6],0.33
same,"D-values Post Inhibitor Treatment (compared to uninhibited cells), MK-571",CHO K1 cells; [6],0.15
same,"D-values Post Inhibitor Treatment (compared to uninhibited cells), Verapamil",CHO K1 cells; [6],0.14
same,"D-values Post Inhibitor Treatment (compared to uninhibited cells), CsA",CHO K1 cells; [7],0.20
same,"D-values Post Inhibitor Treatment (compared to uninhibited cells), FTC",CHO K1 cells; [7],0.27
same,"D-values Post Inhibitor Treatment (compared to uninhibited cells), MK-571",CHO K1 cells; [7],0.09
same,"D-values Post Inhibitor Treatment (compared to uninhibited cells), Verapamil",CHO K1 cells; [7],0.18
same,"D-values Post Inhibitor Treatment (compared to uninhibited cells), CsA",CHO K1 cells; [8],0.4
same,"D-values Post Inhibitor Treatment (compared to uninhibited cells), FTC",CHO K1 cells; [8],0.41
same,"D-values Post Inhibitor Treatment (compared to uninhibited cells), MK-571",CHO K1 cells; [8],0.13
same,"D-values Post Inhibitor Treatment (compared to uninhibited cells), Verapamil",CHO K1 cells; [8],0.17
same,"MAF value, Fumitremorgin C",CHO K1 cells,22.3
same,"MAF value, Probenecid",CHO K1 cells,8.4
same,"MAF value, Verapamil",CHO K1 cells,0.7
same,"MAF value, CsA",HL-60 cells; [1],6.5±1.7
same,"MAF value, MK571",HL-60 cells; [2],7.6±1.6
same,"MAF value, Nov",HL-60 cells; [3],8.5±1.4
same,"MAF value, Ver",HL-60 cells; [4],6.8±0.6
"CCN1C(=CC=Cc2oc3ccccc3[n+]2CC)Oc2ccccc21.[I-] [DiOC2(3), 3,3′-diethyloxacarbocyanine iodide]","MAF value, Fumitremorgin C",A549 cells,0.9
same,"MAF value, Probenecid",A549 cells,1.0
same,"MAF value, Verapamil",A549 cells,4.2
same,"MAF value, Fumitremorgin C",HeLa cells,0
same,"MAF value, Probenecid",HeLa cells,0
same,"MAF value, Verapamil",HeLa cells,0
same,"MAF value, CsA",HCT-8 cells; [1],24.7±0.9
same,"MAF value, MK571",HCT-8 cells; [2],9.8±1.2
same,"MAF value, Nov",HCT-8 cells; [3],0
same,"MAF value, Ver",HCT-8 cells; [4],19.1±3.7
same,"MAF value, CsA",HCT-15 cells; [1],71.0±5.0
same,"MAF value, MK571",HCT-15 cells; [2],4.3±2.2
same,"MAF value, Nov",HCT-15 cells; [3],0
same,"MAF value, Ver",HCT-15 cells; [4],69.3±4.3
same,"D-values Post Inhibitor Treatment (compared to uninhibited cells), CsA",CHO K1 cells; [9],0.94
same,"D-values Post Inhibitor Treatment (compared to uninhibited cells), FTC",CHO K1 cells; [9],0.16
same,"D-values Post Inhibitor Treatment (compared to uninhibited cells), MK-571",CHO K1 cells; [9],0.13
same,"D-values Post Inhibitor Treatment (compared to uninhibited cells), Verapamil",CHO K1 cells; [9],0.96
same,"D-values Post Inhibitor Treatment (compared to uninhibited cells), CsA",CHO K1 cells; [8],0.98
same,"D-values Post Inhibitor Treatment (compared to uninhibited cells), FTC",CHO K1 cells; [8],0.11
same,"D-values Post Inhibitor Treatment (compared to uninhibited cells), MK-571",CHO K1 cells; [8],0.13
same,"D-values Post Inhibitor Treatment (compared to uninhibited cells), Verapamil",CHO K1 cells; [8],0.98
same,"MAF value, Fumitremorgin C",CHO K1 cells,0
same,"MAF value, Probenecid",CHO K1 cells,2.4
same,"MAF value, Verapamil",CHO K1 cells,86.6
